# Measured values: US9497963B2, “Methods and compositions for control of gypsy moth, Lymantria dispar” (Simon Fraser University, priority 2008, dated 2016)
# Experiments:
# Parameters in all cases: species or system Lymantria dispar
# male gypsy moth antenna = experiment: Coupled gas chromatographic-electroantennographic detection (GC-EAD); settings: EAD peak size and shape (sharp/broad)
# Text: In GC-EAD assays, the analyte is processed by gas chromatography (GC). The column effluent is split, such that molecules of each chromatographic peak arrive simultaneously at the flame ionization detector of the GC and at an anectomized but otherwise intact insect antenna as the biological detector. This procedure detects specific compounds in the analyte that elicit an electrical potential from the antenna.
# For GC-EAD recordings, an antenna was carefully dislodged from a male moth's head, and the antennal base placed into the opening of a glass capillary electrode (0.58 mm ID×65 mm length) (A-M Systems, Inc., Carlsborg, Wash., USA) filled with saline solution. The tip of the antenna was removed by spring microscissors (Fine Science Tools Inc., North Vancouver, British Columbia, Canada) and then placed into the opening of the recording electrode mounted on a portable micromanipulator and positioned in front of a constant stream of warm air (Praxair Canada Inc., Mississauga, Ontario, Canada) which delivered the GC column eluent. […] Identical retention times of compounds detected by the flame ionization detector of the GC and by the insect antenna allowed assignment of antennal responses to specific compounds in the eluent.
# L. dispar PBP 1 = experiment: Pheromone-binding protein (PBP) ligand binding assay, PBP1; settings: member tested within library 3c{4, 1-5}
# Method: A. The protein and ligand are incubated in buffer overnight. B. For half of the incubation mixture, the free ligand (L) is separated from the protein-bound ligand (P.L) by size-exclusion chromatography on P2 Gel (BioRad, exclusion limit 2000 Da). The protein elutes from the small column bed, with its ligand bound (see Examples and […] et al. 2000; Staddon and Everton 1980), while the free ligand is retained on the column ([…] et al. 2000). C. […] The extract from the filtrate (B) contains the protein-bound ligand and the extract from the incubation mixture (A) contains all the ligand (bound and free) present in the aqueous phase. The extracts are analyzed by GC-MS, to obtain values for total ligand in solution (L+P.L) and for protein-bound ligand (P.L). These can then be used to calculate % bound (Table 3). These assays were performed as described in FIG. 3 and as follows: L. dispar PBP 1 or PBP 2 was incubated with the test compound or mini-library. The PBP and the ligand(s) (L) were left to equilibrate (eq 2) overnight. The non-bound ligand was then separated from the protein-bound material (PBP.L) by size-exclusion chromatography. By determining the total ligand in solution at equilibrium (eq. 3) and the protein-bound ligand, it is possible to estimate the percentage of ligand bound to the protein at equilibrium (eq. 4). […] This binding assay has been validated extensively in previous studies ([…] et al. 2000). The components of each mini-library separated cleanly by GC, so it was possible to monitor binding of individual components. PBP+L⇄PBP·L (eq. 2) [L]tot=[L]+[PBP·L] (eq. 3) % bound=100×[PBP·L]/[L]tot (eq. 4) Results: The members of each mini-library separated cleanly by GC, therefore it was possible to monitor binding of individual members to PBP1 or PBP2, the two known PBPs in the gypsy moth, by extraction from the aqueous incubation mixture, followed by GC analysis of the extract (FIG. 3).
# [1] = system: response of L. dispar antennae to (+)-disparlure; experiment: Competitive electroantennogram (EAG) screen, inhibition of response to (+)-disparlure (Example 4); settings: Lymantria dispar, means ± S.E.; for inhibition at 0.001 mg: dose 1 μg on cartridge; for inhibition at 0.01 mg: dose 10 μg on cartridge; for inhibition at 0.1 mg: dose 100 μg on cartridge
# Method: In this assay, libraries and individual compounds are tested for their ability to inhibit the antennal response to the sex attractant pheromone of the gypsy moth, (7R,8S) 2-methyl-7,8-epoxyoctadecane, also known as (+)-disparlure. The controls consisted of a puff of clean air (negative) or of air passed over a cartridge impregnated with (+)-disparlure (100 ng) (positive). The treatments consisted of 100 ng of (+)-disparlure in combination with a compound or library at 1, 10 or 100 μg, on a cartridge over which the air puff was passed. The small arrows above the trace denote the times where the air was puffed over the antenna.
# For some compounds, such as the para Compounds 2c{n}, 2c{n,n} and libraries 3c{n,1-5}, EAG competitive assays were performed to investigate whether the diethers inhibit the response of L. dispar antennae to the main component of the sex attractant pheromone cis-(7R,8S)-epoxy-2-methyloctadecane [(+)-disparlure] (FIG. 4). For EAGs a male moth antenna was mounted and placed in front of a stimulus-delivery glass tubing (160×5 mm ID) with a side orifice (2 mm diam) near (2 cm) the distal opening. The tubing was connected to one port of an apparatus (Stimulus Controller CS-05, Syntech Research and Equipment, NL-1200BM Hilversum, The Netherlands) that generated a constant stream of clean air (300 ml/min). The second port of the apparatus was connected to a Pasteur pipette inserted through the side orifice of the stimulus-delivery tubing. The test stimulus was applied to a disc of Whatman #1 filter paper inside the Pasteur pipette and was discharged through a 0.3-sec pulse of air (600 ml/min) Receptor potentials of the antennae in response to test stimuli were recorded with a Syntech IDAC probe, amplifier and interfaced board, and were analyzed with EAG Syntech Software Version 2.4 (1996) Inhibition (%) was calculated as: % inhibition=(Dd−Ds)/Dd×100 (eq. 1)
# Where Dd is the depolarization observed with pure disparlure (corrected for clean air background) and Ds is the depolarization with disparlure+sample. See FIG. 4 for a representative EAG inhibition assay trace.
# [2] = system: male gypsy moth antenna response to pheromone (+)-1; experiment: EAG short-term (STI) and long-term (LTI) inhibition of pheromone signaling (Example 5); settings: for inhibition at 0.001 mg / inhibition at 0.01 mg / inhibition at 0.1 mg / inhibition at 100 µg, 0.1 mg: Lymantria dispar, mean ± S.E.; for inhibition at 0.001 mg: mixed plume (+)-1 100 ng + compound 1 μg; for inhibition at 0.001 mg / inhibition at 0.01 mg / inhibition at 0.1 mg: negative = enhancement, read-out: Activity (%): short-term inhibition (STI); for inhibition at 0.01 mg: mixed plume (+)-1 100 ng + compound 10 μg; for inhibition at 0.1 mg: mixed plume (+)-1 100 ng + compound 100 μg (puff v); for inhibition at 100 µg, 0.1 mg: pure (+)-1 100 ng plume following mixed plume with 100 μg compound, read-out: Activity (%): long-term inhibition (LTI)
# Method: The puffs are numbered i-vi and were: i=air, ii=pure pheromone (+)-disparlure, (+)-1, (100 ng), iii-v=disparlure mixed with the test compound, the latter at three different doses, vi=pure (+)-1. Depolarizations from the resting potential are labeled d; hyperpolarizations seen during the recovery phase after a puff are labeled r. Subscripts refer to the puff number. FIG. 5A. Typical trace for compound 3c{2,3}. FIG. 5B. Typical trace for compound 3a{4,4}.
# For other compounds, EAG traces were recorded as follows: a fully dislodged antenna from a male gypsy moth was mounted on the end of a reference electrode (a glass capillary with a silver wire, filled with buffered saline: 5 mM NaH2PO4, 10 mM Na2SO4, 4.5 mM KHCO3, 18 mM MgCl2, 4 mM CaCl2, 6 mM KCl, the pH is adjusted to 6.8 using 5 mM Na2HPO4). The tip of the antenna was severed with microscissors and placed in the recording electrode, which was mounted on a micromanipulator. A constant stream of air, that had been purified (charcoal filter), was blown over the antenna at a rate of 300 mL/min. Test samples were delivered through a stimulus delivery tube with a side opening 2 cm from the distal opening. The proximal end of the delivery tube was connected to a controlled stimulus delivery apparatus (Stimulus controller CS-05 Syntech Research and Equipment, NL 1200BM, Hilversum, The Netherlands). The distal end of the delivery tube pointed at the antenna (1 cm from the antenna). The side opening was connected to a cartridge fashioned from a Pasteur pipette which contained a small filter paper (Whatman No. 1) with the stimulus. These pipette cartridges could be prepared a few days in advance and stored at −80° C. wrapped in Al foil and in sealable plastic bags. Sample cartridges were mounted once they had reached room temperature. The stimulus delivery apparatus delivered a second stream of air (a puff) through the Pasteur pipette at a velocity of 600 mL/min, at a specified point in time, for 0.3 s. Receptor potentials of the antennae in response to test stimuli were recorded with a Syntech IDAC probe, amplifier and interfaced board, and were analyzed with EAG Syntech Software Version 2.4 (1996). See FIG. 4 for a representative EAG trace. The EAG traces were evaluated as follows (see FIG. 5).
# The net depolarizations, d(net) (in mV), of puffs ii-vi,d(sample), (corrected for the depolarization with clean air, d(air)) d(net)=d(sample)−d(air) (Eq. 1)
# The percentage short-term inhibition for each compound (STI(compound)) of puffs iii-v, relative to the first pure pheromone puff (ii) STI(compound)=100×(d(net)(ii)−d(net)(compound))/d(net)(ii) (Eq. 2)
# c) the percentage long-term inhibition for each compound (LTI(compound)) of the pure pheromone puff that followed the last mixed puff (vi) relative to the first pure pheromone puff (ii) LTI(compound)=100×(d(net)(ii)−d(net)(vi))/d(net)(ii) (Eq. 3)
# The compounds we tested gave weak or no olfactory responses by themselves in electroantennogram (EAG) experiments. The EAG trace reflects the change in the potential across the antenna when an air puff with an odorant is passed over the antenna. To understand the agonistic or antagonistic effect of the compounds on pheromone responses by male moth antennae, four types of EAG experiment were conducted. First, the response of the antenna elicited by a stimulus of pure (+)-1 was compared to the responses elicited by blends of (+)-1 with the test compound (FIG. 5). […] This effect was termed short-term inhibition (STI). […] Second, the time decay and dose responses for LTI activities were studied. Third, the strongest inhibitors were tested for their ability to cause LTI by themselves.
# This experiment explored the agonistic or antagonistic activity of the synthetic aromatic compounds (Scheme 1 and eugenol and alkyl eugenols) with the gypsy moth pheromone (+)-1. […]
Compound,GC-EAD activity (male gypsy moth antenna),PBP1 (% bound) (L. dispar PBP 1),inhibition at 0.001 mg [1],inhibition at 0.01 mg [1],inhibition at 0.1 mg [1],inhibition at 0.001 mg [2],inhibition at 0.01 mg [2],inhibition at 0.1 mg [2],"inhibition at 100 µg, 0.1 mg [2]",short-term effect on antennal pheromone response (in words) [2]
"CCCCOc1ccc(OCCC(C)C)cc1 [3c{4,5}, 1-butoxy-4-(3-methyl-butyloxy) benzene]",None,4 ± 0.4%,–,–,–,–,–,–,–,–
"CCCCOc1ccc(OCC)cc1 [3c{2,4}, 1-butoxy-4-ethoxy benzene]",None,10 ± 0.4%,–,–,–,–,–,–,–,–
"CCOc1ccc(O)cc1 [2c{2}, 4-Ethoxy phenol]",None,–,49 ± 10%,64 ± 9%,45 ± 8%,-3 ± 4%,55 ± 5%,47 ± 5%,7 ± 4%,–
"CCCOc1ccc(O)cc1 [2c{3}, 4-Propoxy phenol]",None,–,17 ± 14%,43 ± 14%,35 ± 12%,7 ± 31%,29 ± 34%,38 ± 12%,-8 ± 7%,–
"COc1ccc(O)cc1 [2c{1}, 4-Methoxy phenol]",None,–,10 ± 5%,55 ± 11%,43 ± 12%,8 ± 12%,21 ± 20%,-16 ± 25%,10 ± 7%,–
"CCCCOc1ccc(OC)cc1 [3c{1,4}, 1-butoxy-4-methoxy benzene]",None,20 ± 0.4%,–,–,–,–,–,–,–,–
"CC(C)CCOc1ccc(O)cc1 [2c{5}, 4-(3-Methyl-butyloxy) phenol]",None,–,38 ± 17%,38 ± 27%,19 ± 20%,47 ± 14%,77 ± 7%,49 ± 7%,2 ± 4%,antagonistic
"CCCOc1cccc(O)c1 [2b{3}, 3-Propoxy phenol]",None,–,–,–,–,-6 ± 14%,36 ± 19%,65 ± 14%,8 ± 6%,–
"COc1cccc(O)c1 [2b{1}, 3-Methoxy phenol]",None,–,–,–,–,6 ± 11%,14 ± 22%,49 ± 8%,4 ± 7%,–
"C=CCOc1ccc(OCCC)cc1 [3c{3,6}, 1-allyloxy-4-propoxybenzene]",+ broad,–,–,–,–,-57 ± 46%,-114 ± 51%,-168 ± 76%,39 ± 15%,–
"C=CCOc1cccc(OCCC(C)C)c1 [3b{5,6}, 1-allyloxy-3-isopentoxybenzene]",None,–,–,–,–,-69 ± 34%,-85 ± 65%,-99 ± 88%,15 ± 8%,–
"COc1cccc(OC)c1 [3b{1,1}, 1,3-Dimethoxy benzene]",Trace,–,–,–,–,25 ± 18%,9 ± 40%,44 ± 36%,1 ± 8%,–
"C=CCOc1cccc(OC)c1 [3b{1,6}, 1-allyloxy-3-methoxybenzene]",None,–,–,–,–,-67 ± 61%,-107 ± 88%,-95 ± 106%,14 ± 13%,–
"CCCCOc1cccc(O)c1 [2b{4}, 3-butoxyphenol]",None,–,–,–,–,-6 ± 18%,-20 ± 31%,-74 ± 71%,-1 ± 15%,short-term enhancements
